We go through five compounds from article PMC10837484 (Clinical and Translational Science, 2024).

Data set [1] deals with LTA4H. Conditions: cited from earlier work.
For data set [2], the target named is T1, LTA4H (Homo sapiens, UniProt P09960).
T1 sequence (P09960 1-611): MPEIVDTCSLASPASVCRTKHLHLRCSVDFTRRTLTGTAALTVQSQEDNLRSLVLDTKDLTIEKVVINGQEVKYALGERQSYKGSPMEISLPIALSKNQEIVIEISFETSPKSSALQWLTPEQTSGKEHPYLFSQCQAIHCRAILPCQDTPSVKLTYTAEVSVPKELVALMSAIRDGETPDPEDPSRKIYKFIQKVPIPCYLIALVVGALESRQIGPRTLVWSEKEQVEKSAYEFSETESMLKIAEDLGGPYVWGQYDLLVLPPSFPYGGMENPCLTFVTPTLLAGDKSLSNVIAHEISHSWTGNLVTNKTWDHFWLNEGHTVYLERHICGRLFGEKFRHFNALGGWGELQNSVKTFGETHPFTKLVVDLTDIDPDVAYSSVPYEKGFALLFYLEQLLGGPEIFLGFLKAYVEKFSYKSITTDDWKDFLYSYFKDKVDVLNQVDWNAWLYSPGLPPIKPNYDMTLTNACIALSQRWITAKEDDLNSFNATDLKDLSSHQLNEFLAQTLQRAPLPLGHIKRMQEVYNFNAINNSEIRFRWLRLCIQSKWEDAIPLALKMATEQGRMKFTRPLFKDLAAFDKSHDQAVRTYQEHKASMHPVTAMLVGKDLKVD
Particulars: cited from earlier work.

For data set [3], the target named is T1, LTA4H. Particulars: patients with asthma; cited from earlier work.
Data set [4] is described as follows: First-in-human study: LYS006 concentrations in plasma and blood. The data set is classed as in vivo. Conditions: for concentration at 24 h: blood level, 24 h timepoint.
A further data set in a line: in vivo. Conditions: male, Wistar, rat, 3 mg/kg.
The conditions of data set [5]: cited from earlier work.
Data set [6] can be described thus: First-in-human study: safety and tolerability. The data set is classed as in vivo.
Data set [7] can be described thus: Dog PK/PD study: LYS006 in blood and plasma. The data set is classed as in vivo, male beagle dogs.
For data set [8] the following is noted: cited from earlier work. This is another data set of the same source.
Where [9] appears, read: SAD part, LYS006 treated participants.
Where [10] appears, read: 0.5 mg/kg p.o. q.d., after fifth dose.

For `O=C(O)CCCN1CCC[C@H]1COc1ccc(Oc2ccc(Cl)cc2)cc1` [DG‐051], the “in vitro potency relative to other clinical LTA4H inhibitors” value in the data set on LTA4H [1] is reported as “lowest potency”. The “LTB4 reduction in ex vivo stimulated blood” value on LTA4H [2] (after 7 days of once daily treatment) was “up to 70%”.
In the case of `CC(=O)NC1C[C@H]2CC[C@@H](C1)N2Cc1ccc(Oc2nc3ncccc3s2)cc1` (stereo partly shown) [JNJ‐40929837], the “potency in in vitro cellular assays” value in the data set on LTA4H [1] is “highly potent”. Further, the “reduction of LTB4 levels” value at LTA4H [2] (over a 24 h period at doses of 100 mg) is reported as “greater than 95%”. Moreover, the “reduction in sputum LTB4” value at LTA4H [3] was 92%.
As to `N[C@@H](CC(=O)O)Cn1nnc(-c2ccc(Oc3ncc(Cl)cc3F)cc2)n1` [LYS006], in data set [4] (MAD, 15 mg q.d.), the trough blood level was ~ 35 ng/mL and the trough plasma level was ~ 2 ng/mL. Further, in data set [4] (MAD, after last dose on day 12), the “blood exposure after end-of-treatment” value fell in the range of 30 to 40 ng/mL and the “plasma level after end-of-treatment” value lay within 1 to 2 ng/mL. Further, the concentration at 24 h in [4] (both, human, in vivo, 5 mg, SAD) was 29.4 ng/mL. In data set [4] (both, human, in vivo, 70 mg, SAD), this compound returned a concentration at 24 h of 37.1 ng/mL. This compound gave a concentration at 12 h in data set [4] (both, human, in vivo, blood concentration, SAD, 12 h after administration) of 30 to 50 ng/mL. In addition, the concentration at 4 h in the data set “in vivo” is > 1000 ng/mL. The “time to maximum plasma concentration (Tmax)” value in data set [5] (clinical PK) is 1 to 2 h. Besides, the “parent compound excreted into the urine” value in data set [5] (human) is 90%. Also, in [6] (FE cohorts, 10 mg, N = 12), the “AE severity: Mild” value is on record as 8 (66.6) n (%), the “AE severity: Moderate” value is recorded as 0 (0) n (%), the “AE severity: Severe” value is given as 0 (0) n (%) and the “AEs leading to discontinuation” value is reported as 0 (0) n (%). Further, in data set [6] (FE cohorts, 10 mg, N = 12), the “Abdominal discomfort or pain” value is on record as 2 (16.7) n (%), the Amylase increase is given as 0 (0) n (%), the Back pain is reported as 0 (0) n (%) and the “Blood CPK elevation” value is reported as 0 (0) n (%). For the same compound, in [6] (FE cohorts, 10 mg, N = 12), the Breast pain is given as 0 (0) n (%), the Deaths is on record as 0 (0) n (%), the Diarrhea was 0 (0) n (%) and the Dizziness is on record as 0 (0) n (%). Besides, in data set [6] (FE cohorts, 10 mg, N = 12), the Dry skin is 2 (16.7) n (%), the Feeling cold is on record as 2 (16.7) n (%), the Headache is recorded as 1 (8.3) n (%) and the Lipase elevation was 0 (0) n (%). Further, in data set [6] (FE cohorts, 10 mg, N = 12), the Nausea was 0 (0) n (%), the Pruritus is listed as 0 (0) n (%), the SAEs was 0 (0) n (%) and the “Study drug-related AEs” value is 0 (0) n (%). Further, in data set [6] (FE cohorts, 10 mg, N = 12), the Viral respiratory infection is 3 (25) n (%). In data set [6] (FE part, 10 mg), the Feeling cold amounted to 16.7%, the abdominal pain is listed as 16.7%, the dry skin was 16.7% and the “viral upper respiratory tract infection” value came to 25.0%. Besides, in [6] (FE part, 10 mg fasted or fed, 12 patients), the “participants with at least one AE” value was determined as 66.7%. Besides, in data set [6] (MAD cohorts, all doses, N = 30), the “AE severity: Mild” value is given as 22 (73.3) n (%), the “AE severity: Moderate” value is 4 (13.3) n (%), the “AE severity: Severe” value was 4 (13.3) n (%) and the “AEs leading to discontinuation” value was 0 (0) n (%). Besides, in data set [6] (MAD cohorts, all doses, N = 30), the “Abdominal discomfort or pain” value was 2 (6.7) n (%), the Amylase increase is given as 2 (6.7) n (%), the Back pain is 2 (6.7) n (%) and the “Blood CPK elevation” value was 5 (16.7) n (%). Besides, in [6] (MAD cohorts, all doses, N = 30), the Breast pain is recorded as 0 (0) n (%), the Deaths is on record as 0 (0) n (%), the Diarrhea is 1 (3.3) n (%) and the Dizziness is given as 2 (6.7) n (%). For the same compound, in data set [6] (MAD cohorts, all doses, N = 30), the Dry skin is recorded as 0 (0) n (%), the Feeling cold is 0 (0) n (%), the Headache was 8 (26.7) n (%) and the Lipase elevation is 3 (10) n (%). Moreover, in data set [6] (MAD cohorts, all doses, N = 30), the Nausea was 2 (6.7) n (%), the Pruritus is given as 0 (0) n (%), the SAEs is 0 (0) n (%) and the “Study drug-related AEs” value is recorded as 5 (16.7) n (%). Moreover, in [6] (MAD cohorts, all doses, N = 30), the “Subjects with at least one AE” value was 23 (76.7) n (%) and the Viral respiratory infection is recorded as 2 (6.7) n (%). For the same compound, the “participants with AEs” value in [6] (MAD part, 30 LYS006-treated participants) is given as 76.7%. Also, the “AEs of severe intensity (grade 3)” value in [6] (MAD part, LYS006-treated participants) is 13.3%. Moreover, in data set [6] (MAD part, LYS006 group), the Headache is recorded as 26.7%, the Lipase elevation stood at 10% and the “creatine phosphokinase (CPK) elevation” value is 16.7%. In addition, in data set [6] (MAD, LYS006 group, transient), the “number of AEs of severe intensity related to CPK elevations” value is reported as “two” and the “number of lipase elevations of severe intensity (grade 3)” value is “Two”. Also, in [6] (SAD cohorts, all doses, N = 51), the “AE severity: Mild” value is on record as 18 (35.3) n (%), the “AE severity: Moderate” value is 2 (3.9) n (%), the “AE severity: Severe” value is 1 (2) n (%) and the “AEs leading to discontinuation” value is recorded as 0 (0) n (%). Besides, in data set [6] (SAD cohorts, all doses, N = 51), the “Abdominal discomfort or pain” value is 4 (7.8) n (%), the Amylase increase is given as 0 (0) n (%), the Back pain is listed as 1 (2) n (%) and the “Blood CPK elevation” value is 0 (0) n (%). Also, in [6] (SAD cohorts, all doses, N = 51), the Breast pain is 0 (0) n (%), the Deaths is listed as 0 (0) n (%), the Diarrhea is listed as 2 (3.9) n (%) and the Dizziness is listed as 1 (2) n (%). Besides, in data set [6] (SAD cohorts, all doses, N = 51), the Dry skin is listed as 0 (0) n (%), the Feeling cold is given as 0 (0) n (%), the Headache is reported as 3 (5.9) n (%) and the Lipase elevation was 2 (3.9) n (%). Further, in data set [6] (SAD cohorts, all doses, N = 51), the Nausea is 0 (0) n (%), the Pruritus was 2 (3.9) n (%), the SAEs is given as 0 (0) n (%) and the “Study drug-related AEs” value is 4 (7.8) n (%). In data set [6] (SAD cohorts, all doses, N = 51), the “Subjects with at least one AE” value is on record as 19 (37.3) n (%) and the Viral respiratory infection is reported as 0 (0) n (%). In data set [6] (SAD part, 51 LYS006 treated participants), the “participants with AEs” value is 37.3%. In [6] (setting [9]), the “Abdominal discomfort or pain” value amounted to 7.8%, the Diarrhea was determined as 3.9% and the Headache turned out to be 5.9%. In addition, in data set [6] (SAD, FE and MAD parts, all study participants), the tolerability entry is “well‐tolerated”. Further, the dose-limiting toxicity entry in data set [6] (healthy participants, up to 80 mg b.i.d.) is “No dose‐limiting toxicity”. The “lipase increase, only AE of severe intensity (grade 3) in SAD” value in data set [6] (one participant, single dose 5 mg, day 8 after dosing, no clinical sign) is on record as ≥ 2 × ULN. In data set [7] (setting [10]), this compound registered a peak blood concentration of 55 ng/mL and a peak plasma concentration of 5.5 ng/mL. In [7] (3 mg/kg p.o., first dose, 1 h), this compound registered a peak blood level of 71 ng/mL and a peak plasma level of 36 ng/mL. Moreover, the concentration at 24 h in data set [7] (male, beagle, in vivo, po, 0.5 mg/kg, plasma Ctrough, 0.5 mg/kg p.o., first dose) is ~3 ng/mL.
Consider `O=C(O)c1ccc(CN2C[C@@H]3C[C@H]2CN3Cc2ccc(Oc3ccc(-c4ncco4)cc3)cc2)cc1` [acebilustat], for which the “maximum PD effect, reduction of LTB4 at peak in ex vivo stimulated blood” value on LTA4H [2] (highest tested dose 200 mg q.d.) was 89%.
Consider `CC(c1cc2ccccc2s1)N(O)C(N)=O` (stereo not shown) [zileuton], for which the “effect on liver transaminases” value in [8] is on record as “elevates liver transaminases”.
